Tested on: Brassica rapa subsp. oleifera
Test: Herbicidal activity against Brassica rapa subsp. oleifera assessed as Brassica rapa subsp. oleifera root growth inhibition at 100 mg/L
Type: functional
Settings: read-out: GI

Compared with `COc1ccc(SSc2nc[nH]n2)cc1`, `Cc1ccc(SSc2nc[nH]n2)cc1` is higher in inhibition of growth at 100 µg/mL: 44.6% for the first, 67.5% for the second.

First: Cc1nc(SSc2ccccc2)n[nH]1
Second: Cc1nc(SSc2ccccc2F)n[nH]1
The inhibition of growth at 100 µg/mL of the first is higher: 69.4% for the first, 13% for the second.

Going from `Cc1ccc(SSc2n[nH]c(C)n2)cc1` to `Cc1nc(SSc2ccc(Cl)cc2)n[nH]1`, the inhibition of growth at 100 µg/mL falls from 62.5% to 24.1%.

First: COC(=O)c1ccccc1SSc1n[nH]c(C)n1
Second: CCOC(=O)c1ccccc1SSc1n[nH]c(C)n1
The inhibition of growth at 100 µg/mL of the first is lower: 10.6% for the first, 26.6% for the second.

Going from `Cc1nc(SSc2ccccc2[N+](=O)[O-])n[nH]1` to `Cc1nc(SSc2ccccc2C)n[nH]1`, the inhibition of growth at 100 µg/mL falls from 59.6% to 36.8%.

Going from `COc1ccc(SSc2n[nH]c(C)n2)cc1` to `Cc1nc(SSc2ccc(Br)cc2)n[nH]1`, the inhibition of growth at 100 µg/mL falls from 28.3% to 17.6%.

Compared with `Cc1nc(SSc2ccc3ccccc3c2)n[nH]1`, `c1ccc2cc(SSc3nc[nH]n3)ccc2c1` is higher in inhibition of growth at 100 µg/mL: 0% for the first, 16.3% for the second.

Going from `c1ccc(SSc2n[nH]c(-c3ccccc3)n2)cc1` to `c1ccc(SSc2n[nH]c(-c3ccncc3)n2)cc1`, the inhibition of growth at 100 µg/mL falls from 81.7% to 70.2%.

First: Cc1ccc(SSc2n[nH]c(-c3ccccc3)n2)cc1
Second: Cc1ccc(-c2nc(SSc3ccccc3)n[nH]2)cc1
The inhibition of growth at 100 µg/mL of the first is higher: 87.5% for the first, 54.1% for the second.

First: COC(=O)c1ccccc1SSc1n[nH]c(-c2ccccc2)n1
Second: CCOC(=O)c1ccccc1SSc1n[nH]c(-c2ccccc2)n1
The inhibition of growth at 100 µg/mL of the first is higher: 52.8% for the first, 34.3% for the second.

`O=[N+]([O-])c1ccccc1SSc1n[nH]c(-c2ccccc2)n1` and `O=[N+]([O-])c1ccccc1SSc1n[nH]c(-c2ccncc2)n1` are the same in inhibition of growth at 100 µg/mL: 0% for the first, 0% for the second.

Compared with `COc1ccc(SSc2n[nH]c(-c3ccccc3)n2)cc1`, `Clc1ccc(SSc2n[nH]c(-c3ccccc3)n2)cc1` is higher in inhibition of growth at 100 µg/mL: 29.4% for the first, 37.5% for the second.

Going from `Cc1ccc(SSc2n[nH]c(-c3ccc(C)cc3)n2)cc1` to `Cc1ccc(-c2nc(SSc3ccc(Cl)cc3)n[nH]2)cc1`, the inhibition of growth at 100 µg/mL rises from 0% to 24.1%.

Going from `COC(=O)c1ccccc1SSc1n[nH]c(-c2ccc(C)cc2)n1` to `CCOC(=O)c1ccccc1SSc1n[nH]c(-c2ccc(C)cc2)n1`, the inhibition of growth at 100 µg/mL falls from 44.9% to 0%.

Going from `Cc1ccc(-c2nc(SSc3ccccc3[N+](=O)[O-])n[nH]2)cc1` to `O=[N+]([O-])c1ccccc1SSc1n[nH]c(-c2cccnc2)n1`, the inhibition of growth at 100 µg/mL rises from 0% to 27.4%.

First: COc1ccc(SSc2n[nH]c(-c3ccc(C)cc3)n2)cc1
Second: COc1ccc(SSc2n[nH]c(-c3ccncc3)n2)cc1
The inhibition of growth at 100 µg/mL of the first is higher: 11% for the first, 0% for the second.

Going from `Cc1ccc(SSc2n[nH]c(-c3ccncc3)n2)cc1` to `Clc1ccc(SSc2n[nH]c(-c3ccncc3)n2)cc1`, the inhibition of growth at 100 µg/mL falls from 6.9% to 0%.

First: COC(=O)c1ccccc1SSc1n[nH]c(-c2ccncc2)n1
Second: CCOC(=O)c1ccccc1SSc1n[nH]c(-c2ccncc2)n1
The inhibition of growth at 100 µg/mL of the first is higher: 30.5% for the first, 0% for the second.

First: c1ccc(SSc2n[nH]c(-c3cccnc3)n2)cc1
Second: Cc1ccc(SSc2n[nH]c(-c3cccnc3)n2)cc1
The inhibition of growth at 100 µg/mL of the first is higher: 66.2% for the first, 0% for the second.

`COC(=O)c1ccccc1SSc1n[nH]c(-c2cccnc2)n1` and `CCOC(=O)c1ccccc1SSc1n[nH]c(-c2cccnc2)n1` are the same in inhibition of growth at 100 µg/mL: 0% for the first, 0% for the second.

Compared with `COc1ccc(SSc2n[nH]c(-c3cccnc3)n2)cc1`, `Clc1ccc(SSc2n[nH]c(-c3cccnc3)n2)cc1` is lower in inhibition of growth at 100 µg/mL: 14.3% for the first, 0% for the second.

Going from `c1ccc(SSc2nc[nH]n2)cc1` to `Fc1ccccc1SSc1nc[nH]n1`, the inhibition of growth at 100 µg/mL falls from 86.6% to 47.2%.

First: COC(=O)c1ccccc1SSc1nc[nH]n1
Second: CCOC(=O)c1ccccc1SSc1nc[nH]n1
The inhibition of growth at 100 µg/mL of the first is higher: 54.8% for the first, 21.1% for the second.

Compared with `O=[N+]([O-])c1ccccc1SSc1nc[nH]n1`, `Cc1ccccc1SSc1nc[nH]n1` is lower in inhibition of growth at 100 µg/mL: 69.8% for the first, 43.6% for the second.

First: Clc1ccc(SSc2nc[nH]n2)cc1
Second: Brc1ccc(SSc2nc[nH]n2)cc1
The inhibition of growth at 100 µg/mL of the first is higher: 50.2% for the first, 27.4% for the second.

`COC(=O)c1ccccc1S(=O)(=O)NC(=O)Nc1nccc(C)n1` [MONOSULFURON ESTER] showed an inhibition of growth at 100 µg/mL of 88.5%.

Target: T1, Acetolactate synthase, chloroplastic (Arabidopsis thaliana, UniProt P17597)
T1 sequence (P17597 whole entry): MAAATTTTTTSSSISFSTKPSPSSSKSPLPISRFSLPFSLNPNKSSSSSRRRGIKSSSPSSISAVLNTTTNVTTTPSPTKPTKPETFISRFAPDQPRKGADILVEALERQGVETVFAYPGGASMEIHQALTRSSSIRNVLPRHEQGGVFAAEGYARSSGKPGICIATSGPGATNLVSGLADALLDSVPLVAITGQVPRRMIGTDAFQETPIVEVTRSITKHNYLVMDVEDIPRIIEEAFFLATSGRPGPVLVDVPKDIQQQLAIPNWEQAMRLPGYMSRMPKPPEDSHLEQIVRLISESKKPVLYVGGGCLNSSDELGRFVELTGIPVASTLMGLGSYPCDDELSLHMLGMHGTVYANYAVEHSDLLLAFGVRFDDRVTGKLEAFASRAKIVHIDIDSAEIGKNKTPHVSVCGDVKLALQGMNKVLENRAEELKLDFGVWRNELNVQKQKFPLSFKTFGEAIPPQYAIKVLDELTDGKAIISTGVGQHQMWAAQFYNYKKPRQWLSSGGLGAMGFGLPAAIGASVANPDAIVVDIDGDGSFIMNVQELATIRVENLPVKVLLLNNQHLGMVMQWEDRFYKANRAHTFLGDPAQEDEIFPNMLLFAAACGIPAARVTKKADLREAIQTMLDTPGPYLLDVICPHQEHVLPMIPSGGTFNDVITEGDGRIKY
Settings: not given

`Cc1nc(SSc2ccccc2[N+](=O)[O-])n[nH]1` and `Cc1ccc(SSc2nc[nH]n2)cc1` are within 1.5-fold of each other in Ki: 5.57 µM for the first, 4.69 µM for the second.

With `COC(=O)c1ccccc1S(=O)(=O)NC(=O)Nc1nccc(C)n1` [MONOSULFURON ESTER] the Ki was 0.26 µM.

Target: Acetolactate synthase, chloroplastic (Arabidopsis thaliana, UniProt P17597, W574L)
Settings: not given

`Cc1nc(SSc2ccccc2[N+](=O)[O-])n[nH]1` and `Cc1ccc(SSc2nc[nH]n2)cc1` are within 1.5-fold of each other in Ki: 27.1 µM for the first, 25.7 µM for the second.

Going from `CC(C)C1(C)N=C(c2nc3ccccc3cc2C(=O)O)NC1=O` (stereo not drawn) [IMAZAQUIN] to `COC(=O)c1ccccc1S(=O)(=O)NC(=O)Nc1nccc(C)n1` [MONOSULFURON ESTER], the Ki falls from 470 µM to 8.53 µM (55-fold).
